Reference: patent publication US8580782B2, “Substituted pyrazolo[1,5-a]pyrimidines as cyclin dependent kinase inhibitors” (Merck Sharp & Dohme Corp., priority 2002, dated 2013)

biological target: CDK2 (cyclin A or cyclin E complex) (Homo sapiens (Human), UniProt P24941); experiment: CDK2 in vitro kinase assay (either cyclin A or E-dependent), SPA with biotinylated Histone H1 peptide and 33P-ATP; type: biochemical; conditions: Table 87
From the text: Assay: • Baculovirus Constructions: Cyclins A and E were cloned into pFASTBAC (Invitrogen) by PCR, with the addition of a GluTAG sequence (EYMPME) at the amino-terminal end to allow purification on anti-GluTAG affinity columns. The expressed proteins were approximately 46 kDa (cyclin E) and 50 kDa (cyclin A) in size. CDK2 was also cloned into pFASTBAC by PCR, with the addition of a haemaglutinin epitope tag at the carboxy-terminal end ([sequence]). The expressed protein was approximately 34 kDa in size. • Enzyme Production: Recombinant baculoviruses expressing cyclins A, E and CDK2 were infected into SF9 cells at a multiplicity of infection (MOI) of 5, for 48 hrs. Cells were harvested by centrifugation at 1000 RPM for 10 minutes. Cyclin-containing (E or A) pellets were combined with CDK2 containing cell pellets and lysed on ice for 30 minutes in five times the pellet volume of lysis buffer containing 50 mM Tris pH 8.0, 0.5% NP40, 1 mM DTT and protease/phosphatase inhibitors (Roche Diagnostics GmbH, Mannheim, Germany). Mixtures were stirred for 30-60 minutes to promote cyclin-CDK2 complex formation. Mixed lysates were then spun down at 15000 RPM for 10 minutes and the supernatant retained. 5 ml of anti-GluTAG beads (for one liter of SF9 cells) were then used to capture cyclin-CDK2 complexes. Bound beads were washed three times in lysis buffer. Proteins were competitively eluted with lysis buffer containing 100-200 ug/mL of the GluTAG peptide. Eluate was dialyzed overnight in 2 liters of kinase buffer containing 50 mM Tris pH 8.0, 1 mM DTT, 10 mM MgCl2, 100 uM sodium orthovanadate and 20% glycerol. Enzyme was stored in aliquots at −70° C. • In Vitro Kinase Assay: CDK2 kinase assays (either cyclin A or E-dependent) were performed in low protein binding 96-well plates (Corning Inc, Corning, N.Y.). Enzyme was diluted to a final concentration of 50 μg/ml in kinase buffer containing 50 mM Tris pH 8.0, 10 mM MgCl2, 1 mM DTT, and 0.1 mM sodium orthovanadate. The substrate used in these reactions was a biotinylated peptide derived from Histone H1 (from Amersham, UK). The substrate was thawed on ice and diluted to 2 μM in kinase buffer. Compounds were diluted in 10% DMSO to desirable concentrations. For each kinase reaction, 20 μl of the 50 μg/ml enzyme solution (1 μg of enzyme) and 20 μl of the 1 μM substrate solution were mixed, then combined with 10 μl of diluted compound in each well for testing. […] The reaction was allowed to run for 1 hour at room temperature. The reaction was stopped by adding 200 μl of stop buffer containing 0.1% Triton X-100, 1 mM ATP, 5 mM EDTA, and 5 mg/ml streptavidine coated SPA beads (from Amersham, UK) for 15 minutes. The SPA beads were then captured onto a 96-well GF/B filter plate (Packard/Perkin Elmer Life Sciences) using a Filtermate universal harvester (Packard/Perkin Elmer Life Sciences.). Non-specific signals were eliminated by washing the beads twice with 2M NaCl then twice with 2 M NaCl with 1% phosphoric acid. The radioactive signal was then measured using a TopCount 96 well liquid scintillation counter (from Packard/Perkin Elmer Life Sciences). • IC50 Determination: Dose-response curves were plotted from inhibition data generated, each in duplicate, from 8 point serial dilutions of inhibitory compounds. Concentration of compound was plotted against % kinase activity, calculated by CPM of treated samples divided by CPM of untreated samples. To generate IC50 values, the dose-response curves were then fitted to a standard sigmoidal curve and IC50 values were derived by nonlinear regression analysis. These kinase activities were generated by using cyclin A or cyclin E using the above-described assay.

Row | IC50 | SMILES
1 | 11 nM | Fc1ccccc1-c1cc(NCc2cccnc2)n2ncc(Br)c2n1 [Example 4]
2 | 21 nM | Fc1ccccc1-c1cc(NCc2cccnc2)n2ncc(Cl)c2n1 [Example 5]
3 | 3 nM | Clc1ccccc1-c1cc(NCc2cccnc2)n2ncc(Br)c2n1 [Example 8]
4 | 42 nM | CC(C)c1cc(NCc2ccncc2)n2ncc(Br)c2n1 [Example 10]
5 | 170 nM | CC(C)(C)c1cc(NCc2ccncc2)n2ncc(Br)c2n1 [Example 12]
6 | 620 nM | N#Cc1cnn2c(NCc3ccncc3)cc(-c3ccccc3)nc12 [Example 16]
